US11141429B2, “Composition and use of macro-minerals to lower postprandial glycemic response and reduce body weight” (American University of Beirut, priority 2016, dated 2021)

Experiments:
Type in all cases: in vivo, human
[1] = tested on: healthy male subjects; assay: Experiment 1: effect of phosphorus ingestion on oral glucose tolerance test (OGTT)
Description: (§1) The example was comprised of two experiments. Healthy male subjects were recruited to perform the experiments (Table 1). Placebo (cellulose) or P (125 mg of potassium phosphate per tablet) tablets, which had similar weight and color, were administered to subjects in a randomized order to prevent order-of-treatment effect. The consent forms were obtained from patients.
Seven overnight fasted subjects (age (mean±SEM): 23.2±1.83 years; BMI: 22.65±0.82 kg/m2) (Table 1: Experiment 1) were asked to attend 3 experimental sessions that were separated by a minimum of 3 days. Sessions included the consumption of either 500 mg of P (4 tablets), a glucose solution (75 g glucose) with 4 Placebo tablets, or a glucose solution (75 g glucose) with 500 mg P. All were ingested with 250 ml of cold water. Blood was withdrawn at base-line and monitored till 240 min (min) after consumption.
(§2) Serum was separated from collected blood samples and stored at −80° C. for later analysis of glucose, total P, tri-glyceride and insulin. Glucose was measured from venous samples. Insulin sensitivity was estimated by the method of Caumo A, Bergman R N, Cobelli C. Insulin sensitivity from meal tolerance tests in normal subjects: a minimal model index. J Clin. Endocrinol. Metab. 2000; 85:4396-402 and expressed as (×10^4 dl·kg^−1·min^−1·μUml^−1). The method is based on the kinetic of both glucose and insulin through coupling their rate of appearance into circulation following oral glucose ingestion. It is based on simple area under the curve type of calculation and was validated in normal subjects in whom their calculated insulin sensitivity was strongly correlated to that of frequently […] sampled IV glucose test (FSIGT). In addition, index of insulin sensitivity was calculated using the composite equation proposed by Matsuda M, DeFronzo R A. Insulin sensitivity indices obtained from oral glucose tolerance testing: comparison with the euglycemic insulin clamp. Diabetes Care. 1999; 22 (9):1462-7.
(§3) Data are presented as means±SEM. Paired t-tests were used to compare between treatments and to detect the difference from baseline within each treatment. Repeated Measure ANOVA was run to test the effect of treatment groups over time on each of the dependent variables (P, Glucose and insulin). The level of significance was fixed at P <0.05.

[2] = tested on: healthy male subjects; assay: Experiment 2: effect of pre-phosphorus ingestion (60 min before glucose) on OGTT
Description: as §1
Based on data from experiment 1, peak serum P concentration (60 min) was associated with significant decrease in serum glucose and insulin levels. Thus, experiment 2 was designed to investigate whether P intake one hour prior to glucose ingestion would potentiate the effect of P on postprandial glucose and insulin levels. Eight over-night fasted subjects (age: 27.3±1.68 years; BMI: 23.5±0.97 kg/m^2) (Table 1: Experiment 2) attended 2 experimental sessions that were separated by a minimum of 3 days. Subjects were given placebo or P (500 mg) tab-lets 60 min prior to glucose ingestion. Blood was drawn at baseline (−60 min) and monitored till 240 min relative to glucose ingestion.
as §2, §3

[3] = tested on: subjects (unrestrained eaters, stable body weight); assay: Ad libitum energy intake at subsequent meal after preloads with or without phosphorus; conditions: for Energy intake (ad libitum) at subsequent meal +P: lunch 80 min after preload, mean ± s.d.
Description: A preliminary set of experiments was conducted to investigate the effect of increased phosphorus content of a preload solution on subsequent food intake. The effect of water, sucrose (50 g), fructose (40 g fructose plus 10 g glucose) or glucose (50 g) preloads was examined with or without the addition of 500 mg of phosphorus (mixture of potassium and sodium phosphate). This work was approved by the Institutional Review Board of the American University of Beirut and written informed consent was obtained from all subjects. In brief, participants who had stable body weight for the last 3 months and were unrest-rained eaters as assessed by the three-factor eating questionnaire were selected. All subjects were regular breakfast consumers and were asked to maintain their regular dietary and physical activity habits throughout the course of the example. Subjects were asked to avoid alcohol consumption, as well as any unusual strenuous exercise 24 h before the example. After a minimum of a 12-h fast, they consumed a standard breakfast (440 kcal) 4 h before presenting for the example. Participants chose a time between 1100 and 1400 to be convenient to perform the test; thereafter, they were asked to arrive at the same time on the same day of the week for the second study session. Thus, each experiment used a within-subject design, wherein each participant served as his or her own control.
In each experiment, two chilled preloads (with or without added phosphorus) were offered in a blind randomized order so as to control for the order-of-treatment effect. Each subject presented for two study days separated by a minimum of 1 week. […] At 80 min after the preload, an ad libitum lunch, consisting of standard pizza and water, was offered. Subjects were asked to eat freely until they felt ‘comfortably full’; both food and water intakes were measured. Water intake was measured by weight (g) and food or energy intake (kcal) was obtained from the overall weight of pizza consumed.

[4] = tested on: lean male subjects; assay: Postprandial energy expenditure after high carbohydrate meal with or without P (ventilated hood); conditions: 500 Kcal high carbohydrate meal with 500 mg of P
Description: The objective was to determine the effect of phosphorus (P) ingestion with high carbohydrate meal on postprandial energy expenditure. P ingestion increases postprandial thermogenesis of the subjects.
A cross over study was conducted on six lean male subjects. Subjects received a 500 Kcal high carbohydrate meal (CHO: 65% E; Fat: 31% E; Protein: 4% E) with (500 mg of P) or without P. Energy expenditure was measured at baseline and at 30 minute intervals for 4 hours following meal ingestion using a ventilated hood and canopy system COSMED QUARK CPET unit.

[5] = tested on: overweight/obese adults; assay: 12-week double-blind randomized placebo-controlled phosphorus supplementation study
Description: Participants: After approval of the study by the institutional review board at the American University of Beirut (Beirut, Lebanon), 63 adults aged 18 to 45 years with a BMI ≥25 kgm−2, who provided signed informed consent, were recruited from the general public using poster advertisements or direct approach. Exclusion criteria included glomerular filtration rate of 60 ml min−1 per 1.73 m^2, presence of any significant medical disease, pregnancy or lactation, regular administration of drugs that affect body weight and weight change of ≥3% within 3 months before the study. The enrollment of 40 subjects (20 per group) would detect a 10% change in weight of the placebo group, assuming the latter having a mean weight of 90 kg and s.d. of 10 kg, with 80% power and an a of 5%.
This double-blind, randomized, controlled study allocated subjects into placebo group (n=21) or phosphorus group (n=26). Participants were requested to take three tablets containing either 375 mg phosphorus or a placebo (Nutricap Labs, Farmingdale, N.Y., USA) with each main meal (breakfast, lunch and dinner) for 12 weeks. They were asked to maintain regular dietary and physical activity habits during the entire study course and avoid alcohol consumption and any strenuous exercise 24 h before their visits (at baseline, 6 weeks and 12 weeks). Assignment to intervention or control group was made by having the principle investigator (corresponding author) ask the eligible subjects to blindly draw an envelope from a large box of 100 opaque, sealed envelopes (50 for each group), each containing a 2-cm by 2-cm paper with a written code designating intervention or control. There were no detectable differences in size or weight between intervention and control envelopes. In addition, both researchers and participants were blinded for the type of supplements that were similar in size, shape, color and odor.
Subjects were asked to attend the research unit at baseline and after 6 and 12 weeks of participation. At baseline, anthropometric measurements and blood samples were collected and a subjective appetite questionnaire based on Wilson et al. Appetite assessment: simple appetite questionnaire predicts weight loss in community-dwelling adults and nursing home residents. AJCN 2005; 82:1074-1081 was completed. Participants were given a 6-week supply of the allocated supplement and were asked to attend the research unit at the end of this period. At 6 weeks, remaining tablets were collected and counted in order to assess adherence to the allocated intervention. Participants were then given a supply of the same type of supplementation for the consequent 6 weeks and were asked to complete the subjective appetite questionnaire. At 12 weeks, data were collected similar to the baseline visit, and remaining tablets were counted to assess compliance. Individuals who consumed […] of the allocated tablets were excluded. Body weight and height (without shoes) were measured to the nearest 0.1 kg and 0.1 cm, using a calibrated Seca balance (Hamburg, Germany) and a portable stadiometer, respectively. […] Serum phosphorus, creatinine, C-reactive protein, total cholesterol, high-density lipoprotein cholesterol, triglyceride and glucose levels were measured using the Vitros 350 analyzer (Ortho Clinical Diagnostics, Johnson and Johnson, Buckinghamshire, UK). […] Fasting insulin concentration was measured using the ELISA kit (Diametra Millipore, Billerica, Mass., USA). […]

[6] = Experiment 2 (n = 8), 500 mg P 60 min prior to 75 g glucose, mean ± SEM

[P] [Phosphorus, phosphorus]
Postprandial insulin concentration ([1]; 500 mg P alone): did not alter postprandial insulin concentration | Postprandial serum P ([1]; 500 mg P alone): increased serum P significantly | Decrease in postprandial serum glucose concentration ([1]; 500 mg P alone, during the experimental session (240 min), believed to be the result of fasting): around 5 mg/dl | Insulin sensitivity [29] ([1]; Experiment 1 (n = 7), 500 mg P co-ingested with 75 g glucose, mean ± SEM, Caumo et al. formula): 20.22 ± 6.65 ×10^4 dl·kg^−1·min^−1·μUml^−1 | Insulin sensitivity index [30] ([1]; Experiment 1 (n = 7), 500 mg P co-ingested with 75 g glucose, mean ± SEM, Matsuda composite equation): 7.00 ± 1.06 | Insulin levels vs glucose treatment ([1]; G+P (75 g glucose + 500 mg P), time 60 min, P=0.002): significantly lower | Magnitude of increase in postprandial serum glucose vs glucose treatment ([1]; G+P (75 g glucose + 500 mg P), time 60 min, P=0.016): significantly lower | Magnitude of insulin increase vs placebo preload ([2]; 500 mg P preload 60 min before 75 g glucose): modestly lower | Serum P levels following P ingestion ([2]; 500 mg P preload 60 min before glucose, time 0 and 15 min, then returned to baseline): increased significantly | Insulin sensitivity [29] [2, 6]: 18.39 ± 3.28 ×10^4 dl·kg^−1·min^−1·μUml^−1 | Insulin sensitivity index [30] [2, 6]: 8.88 ± 0.78 | Energy intake (ad libitum) at subsequent meal +P ([3]; Fructose (40 g fructose plus 10 g glucose) preload with 500 mg added phosphorus): 676 ± 404 kcal | Energy intake (ad libitum) at subsequent meal +P ([3]; Glucose (50 g) preload with 500 mg added phosphorus): 652 ± 291 kcal | Energy intake (ad libitum) at subsequent meal +P ([3]; Sucrose (50 g) preload with 500 mg added phosphorus): 532 ± 341 kcal | Energy intake (ad libitum) at subsequent meal +P ([3]; Water preload with 500 mg added phosphorus): 1119 ± 210 kcal | Reduction in energy intake at the subsequent meal ([3]; phosphorus added to fructose preload): 35% | Reduction in energy intake at the subsequent meal ([3]; phosphorus added to glucose preload): 25% | Reduction in energy intake at the subsequent meal ([3]; phosphorus added to sucrose preload): 33% | Reduction in energy intake at the subsequent meal ([3]; phosphorus added to water preload): 27% | Postprandial energy expenditure vs placebo ([4]; 4 hours, p=0.007): significantly higher | Fat oxidation (%) ([4]; p=0.022): significant rise | Carbohydrate oxidation (%) ([4]; p=0.023): decreased | Change in BMI from baseline ([5]; 375 mg phosphorus with each main meal, 12 weeks, 95% CI −0.59 to 0.12, P=0.01 vs placebo): −0.24 kgm−2 | Decrease in body weight from baseline ([5]; 375 mg phosphorus with each main meal, 12 weeks, 95% CI −1.69 to 0.40, P=0.01 vs placebo): 0.65 kg | Reduction in waist circumference from baseline ([5]; 375 mg phosphorus with each main meal, 12 weeks, 95% CI −4.90 to −2.33): 3.62 cm | Changes in subjective appetite scores (appetite, quantity of food to reach fullness, taste of food, number of snacks) vs placebo ([5]; baseline to 12 weeks): significantly reduced | Side effects ([5]; over the experimental period (12 weeks)): No side effects were reported
